In US8940497B2, “Enzyme regulating ether lipid signaling pathways” (The Scripps Research Institute, priority 2006, dated 2015):
“Also recorded” adds a separate entry of the source.

Columns and labels:
[1] = system: other serine hydrolase activities; experiment: In situ competitive ABPP with FP-rhodamine, other serine hydrolases; type: cell-based, human; settings: SKOV-3 cells treated in culture with AS115 (0-10 μM), 4 h
Method: (§1) Human ovarian cancer cell lines were obtained form the National Cancer Institute's Developmental Therapeutics Program. The melanoma lines C8161 and MUM-2B were obtained form Mary Hendrix. Cells were maintained in RPMI medium 1640 with 10% (v/v) fetal calf serum at 37° C. in a humidified atmosphere of 5% CO2/95% air. At approximately 80% confluency, cells were trypsinized, counted with the aid of a hemocytometer, and 2.5×10^6 cells were plated in 6 cm dishes. 20 h after plating cells were washed twice with PBS and supplemented with serum free RPMI containing 0.5% BSA (Sigma)(BSA-RPMI) with AS115 (0.01-10 μM) or vehicle (DMSO) at 0.1%. After incubation for 4 h the cells were harvested and analyzed by ABPP or LC-MS.
[…]. Cells were washed twice and scraped in ice-cold PBS. […] Proteomes protein concentrations were determined by a protein assay kit (Bio-Rad), adjusted to a final concentration of 1 mg/mL in Tris buffer, and treated with 2 μM FP-rhodamine for 30 min at room temperature (50 μL total reaction volume). […] Reactions were quenched with one volume of standard 2×SDS/PAGE loading buffer (reducing), separated by SDS/PAGE (10% acrylamide) and visualized in-gel with a Hitachi FMBio Ile flatbed fluorescence scanner (MiraiBio). Integrated band intensities were calculated for the labeled proteins and averaged from 3 independent cell samples to determine the level of each enzyme activity.

[2] = system: SKOV-3 cells; experiment: Untargeted LC-MS comparative metabolomics of inhibitor-treated cells; type: cell-based, human; settings: 4 h
Method: (§2) The following LC-MS conditions were used for analysis of cancer cell metabolomes. Cell pellets were harvested by scraping, isolated by centrifugation at 1,400×g, and dounce-homogenized in 4 mL of a 2:1:1 mixture of chloroform:methanol:Tris buffer (50 mM Tris*HCl, pH 8.0). Samples that were analyzed by targeted LC-MS were homogenized in the presence of the following synthetic standards: C15:0 MAG (50 pmol), C17:0 LPA (50 pmol), and 13C-C16:0 MAGE (25 pmol). Organic and aqueous layers were separated by centrifugation at 1,260×g for 5 min. The organic layer was then removed, dried under a stream of N2, and re-solubilized in 100 μL of chloroform, of which 30 μL was analyzed by LC-MS. Extraction of LPA was performed by acidifying the remaining aqueous layer to a final concentration of 5% formic acid, followed by the addition of 2 mL of chloroform. The mixture was vortexed, the organic layer removed, concentrated to dryness, and dissolved in 100 μL of chloroform, of which 30 μL was analyzed by LC-MS.
(§3) LC-MS analysis was performed using an Agilent 1100 LC-MSD SL instrument. […] Mobile phase A was composed of a 95:5 ratio of water:methanol and mobile phase B consisted of 2-propanol, methanol, and water in a 60:35:5 ratio. Solvent modifiers such as 0.1% formic acid and 0.1% ammonium hydroxide were used to assist ion formation as well as improve the LC resolution in both positive and negative ionization modes respectively. The flow rate for each run started at 0.1 mL/min for 5 min, to alleviate backpressure associated with injecting chloroform. The gradient started at 0% B and increased linearly to 100% B over the course of 40 min with a flow rate of 0.4 mL/min, followed by an isocratic gradient of 100% B for 7 min before equilibrating for 8 min at 0% B with a flow rate of 0.5 mL/min.
(§4) MS analysis was performed with an electrospray ionization (ESI) source. The capillary voltage was set to 3.0 kV and the fragmentor voltage to 100V. The drying gas temperature was 350° C., the drying gas flow rate was 10 L/min, and the nebulizer pressure was 35 psi. Untargeted data was collected using a mass range of 200-1000 Da and exported as common data format (.CDF) files for computational analysis. Differentially expressed metabolites between sample pairs were identified using the XCMS analyte profiling software (http://metlin/download) that aligns mass peaks from two LC-MS traces and quantifies the relative intensities of global metabolites (5). Significant inhibitor-sensitive peak changes were confirmed by manual quantification using the area under the peak normalized to total ion current. Targeted LC-MS measurements were made using selected ion monitoring (SIM). Peaks were quantified by measuring the area under the peak and normalized to an internal standard (C15:0 MAG) or endogenous lipid (palmitic acid). Absolute MAGE levels were estimated by comparison to a 13C-MAGE standard.
as §1
These experiments were performed using the method of untargeted liquid chromatography-mass spectrometry (LC-MS) for comparative metabolomics. Cells were treated with AS115 (10 μM) or DMSO for 4 h and analyzed by untargeted LC-MS methods. […] Relative mass signals are shown in Table 1, represented as the average values and standard error for three independent experiments.

[3] = system: SKOV-3 cells; experiment: Targeted LC-MS analysis of lipid levels in inhibitor-treated cells; type: cell-based, human
Method: as §2, §3, §4, §1
By extension, the m/z 345 and 347 metabolites were interpreted to represent the C18:1 and C18:0 MAGEs, respectively. […] MAGE levels were measured by targeted LC-MS analysis of SKOV-3 cells treated with AS115 (5 μM) or DMSO for 4 h using a 13C-C16:0 MAGE internal standard. Values are represented as pmol/10^6 cells. […]

[4] = system: C8161 melanoma cells; experiment: LC-MS MAGE lipid levels in inhibitor-treated melanoma cells; type: cell-based, human; settings: compared to DMSO controls
Method: as §2, §3
(§5) MS analysis was performed with an electrospray ionization (ESI) source. […] Differentially expressed metabolites between sample pairs were identified using the XCMS analyte profiling software (http://metlin/download) that aligns mass peaks from two LC-MS traces and quantifies the relative intensities of global metabolites (5). Significant inhibitor-sensitive peak changes were confirmed by manual quantification using the area under the peak normalized to total ion current. […] Peaks were quantified by measuring the area under the peak and normalized to an internal standard (C15:0 MAG) or endogenous lipid (palmitic acid). […]
(§6) Human ovarian cancer cell lines were obtained form the National Cancer Institute's Developmental Therapeutics Program. […] At approximately 80% confluency, cells were trypsinized, counted with the aid of a hemocytometer, and 2.5×10^6 cells were plated in 6 cm dishes. […] After incubation for 4 h the cells were harvested and analyzed by ABPP or LC-MS. […]

[5] = system: MUM-2B melanoma cells; experiment: as above; type: cell-based, human; settings: compared to DMSO controls
Method: as §2, §3, §5, §6

[6] = system: background 2-thioacetyl MAGE hydrolyzing activity in membrane proteomes; experiment: Background 2-thioacetyl MAGE hydrolyzing activity in membrane proteomes; type: biochemical; settings: FIG. 14
Method: KIAA1363-transfected cell lines were used for substrate-based enzyme activity assays. Membrane proteomes were adjusted to 0.5 mg/ml in 50 mM tris pH 7.4 buffer containing 5 mM CHAPS detergent. Immediately prior to the assay, 5,5′-dithiobis-(2-nitrobenzoic acid) (DTNB, Sigma) was added at 0.5 mM to the membrane proteome to prepare the Assay Buffer. For analysis of inhibitors, 1 ul of a 50× inhibitor solution in DMSO was added to 48 ul of Assay Buffer and preincubated for 20 min at RT. The substrate 2-thioacetyl MAGE (Cayman Chemical) was prepared by evaporating off the original solvent under nitrogen and redissolving the residue in DMSO. 1 ul of 5 mM 2-thioacetyl MAGE stock is added to each assay well to begin the assay. Absorbance is determined at A405 nm.
The background 2-thioacetyl MAGE hydrolyzing activity in membrane proteomes that is not inhibited by AS-115 is inhibited by the broad serine protease inhibitor PMSF (FIG. 14). The IC50 of AS-115 was measured using the 2-thioacetyl MAGE substrate-based assay with Flag-KIAA1363/293T cell membrane proteome (FIG. 15).

[7] = system: SKOV-3 cells; experiment: Metabolic labeling of SKOV-3 cells with 13C-2-acetyl MAGE; type: cell-based, human; settings: 10 μM 13C-2-acetyl MAGE, 1 h
Method: Cells were cultured and maintained as described above. Cells used for 13C-2-acetyl MAGE experiments were incubated in BSA-RPMI containing inhibitor or vehicle for […]. BSA-RPMI medium was then removed, supplemented with 10 μM 13C-2-acetyl MAGE or DMSO, and re-applied to cells. After incubation for 1 h the cells were harvested and metabolomes were analyzed by LC-MS. 13C-MAGE experiments were conducted by addition of 13C-MAGE or DMSO containing BSA-RPMI directly after washing with PBS. Cells were then incubated for 4 h, harvested, and analyzed by LC-MS.

Structure (SMILES): CCCCOCC1CCCCC1COCCNC(=O)Oc1ccccc1F (centres unmarked) [AS115]
- IC50 [1]: > 10 µM
- Levels of lipophilic metabolites (m/z 317, 345, and 347) ([2]; 10 μM): substantial reduction
- Levels of typical lipid species (free fatty acids, phospholipids, ceramides, monoacylglycerides) ([2]; 10 μM): none of which were significantly altered
- Relative mass signal DMSO/AS115, Ceramide C16 ([2]; AS115 10 μM or DMSO): 0.53
- Relative mass signal DMSO/AS115, Ceramide C18 ([2]; AS115 10 μM or DMSO): 0.73
- Relative mass signal DMSO/AS115, FFA C14 ([2]; AS115 10 μM or DMSO): 0.69
- Relative mass signal DMSO/AS115, FFA C16 ([2]; AS115 10 μM or DMSO): 0.69
- Relative mass signal DMSO/AS115, FFA C18 ([2]; AS115 10 μM or DMSO): 0.76
- Relative mass signal DMSO/AS115, FFA C18:1 ([2]; AS115 10 μM or DMSO): 0.56
- Relative mass signal DMSO/AS115, FFA C20:4 ([2]; AS115 10 μM or DMSO): 1.04
- Relative mass signal DMSO/AS115, MAG C16 ([2]; AS115 10 μM or DMSO): 1.00
- Relative mass signal DMSO/AS115, MAG C18:1 ([2]; AS115 10 μM or DMSO): 0.83
- Relative mass signal DMSO/AS115, PA C32 ([2]; AS115 10 μM or DMSO): 1.01
- Relative mass signal DMSO/AS115, PA C34 ([2]; AS115 10 μM or DMSO): 1.41
- Relative mass signal DMSO/AS115, PA C34:1 ([2]; AS115 10 μM or DMSO): 0.95
- Relative mass signal DMSO/AS115, PA C36:1 ([2]; AS115 10 μM or DMSO): 0.99
- Relative mass signal DMSO/AS115, PA C36:2 ([2]; AS115 10 μM or DMSO): 0.74
- Relative mass signal DMSO/AS115, PC C32 ([2]; AS115 10 μM or DMSO): 1.07
- Relative mass signal DMSO/AS115, PC C34 ([2]; AS115 10 μM or DMSO): 0.96
- Relative mass signal DMSO/AS115, PC C34:1 ([2]; AS115 10 μM or DMSO): 1.01
- Relative mass signal DMSO/AS115, PC C36:1 ([2]; AS115 10 μM or DMSO): 0.68
- Relative mass signal DMSO/AS115, PC C36:2 ([2]; AS115 10 μM or DMSO): 1.07
- Relative mass signal DMSO/AS115, PE C32 ([2]; AS115 10 μM or DMSO): 1.13
- Relative mass signal DMSO/AS115, PE C34 ([2]; AS115 10 μM or DMSO): 0.94
- Relative mass signal DMSO/AS115, PE C34:1 ([2]; AS115 10 μM or DMSO): 0.84
- Relative mass signal DMSO/AS115, PE C36:1 ([2]; AS115 10 μM or DMSO): 0.94
- Relative mass signal DMSO/AS115, PE C36:2 ([2]; AS115 10 μM or DMSO): 0.61
- Relative mass signal DMSO/AS115, PG C32 ([2]; AS115 10 μM or DMSO): 0.78
- Relative mass signal DMSO/AS115, PG C34 ([2]; AS115 10 μM or DMSO): 0.95
- Relative mass signal DMSO/AS115, PG C34:1 ([2]; AS115 10 μM or DMSO): 0.98
- Relative mass signal DMSO/AS115, PG C36:1 ([2]; AS115 10 μM or DMSO): 0.89
- Relative mass signal DMSO/AS115, PG C36:2 ([2]; AS115 10 μM or DMSO): 1.04
- Relative mass signal DMSO/AS115, PS C32 ([2]; AS115 10 μM or DMSO): 1.06
- Relative mass signal DMSO/AS115, PS C34 ([2]; AS115 10 μM or DMSO): 1.02
- Relative mass signal DMSO/AS115, PS C34:1 ([2]; AS115 10 μM or DMSO): 0.96
- Relative mass signal DMSO/AS115, PS C36:1 ([2]; AS115 10 μM or DMSO): 0.99
- Relative mass signal DMSO/AS115, PS C36:2 ([2]; AS115 10 μM or DMSO): 1.13
- Relative mass signal DMSO/AS115, MAGE C16 ([2]; AS115 10 μM or DMSO, p<0.001): 5.29
- Relative mass signal DMSO/AS115, MAGE C18 ([2]; AS115 10 μM or DMSO, p<0.001): 5.86
- Relative mass signal DMSO/AS115, MAGE C18:1 ([2]; AS115 10 μM or DMSO, p<0.001): 4.42
- Basal levels of 2-acetyl MAGE [3]: not significantly altered
- Basal levels of PAF [3]: not significantly altered
- Absolute level of MAGE lipid C18:1 ([3]; 5 μM, 4 h, 13C-C16:0 MAGE internal standard, DMSO 12.1 ± 0.4): 4.0 ± 0.7 pmol/10^6 cells
- Absolute level of MAGE lipid C18:0 ([3]; 5 μM, 4 h, 13C-C16:0 MAGE internal standard, DMSO 39.5 ± 3.7): 7.6 ± 2.3 pmol/10^6 cells
- Absolute level of MAGE lipid C16:0 ([3]; 5 μM, 4 h, 13C-C16:0 MAGE internal standard, DMSO 94.7 ± 6.6): 19.3 ± 2.2 pmol/10^6 cells
- Levels of MAGE lipids ([3]; compared to DMSO controls): significantly lowered; also recorded: reduce
- Levels of alkyl-LPA ([3]; vs vehicle, FIG. 7B): reduce
- Levels of alkyl-LPC ([3]; vs vehicle, FIG. 7B): reduce
- Levels of MAGE lipids [4]: significantly reduced
- Levels of MAGE lipids [5]: significantly reduced
- Background 2-thioacetyl MAGE hydrolyzing activity [6]: not inhibited
- Levels of 2-acetyl MAGE as judged by metabolic labeling [7]: significantly stabilized
- PAF level in metabolic labeling experiments [7]: accumulation
